Data: patent US20260125382A1, “COMPOUNDS FOR INHIBITING OR DEGRADING CDK2 AND/OR CDK9 AND MEDICINAL USE THEREOF” (KOREA RESEARCH INSTITUTE OF CHEMICAL TECHNOLOGY, priority 2022, published 2026)

Columns and labels:
CDK2 = target: T1, CDK2 (Homo sapiens, UniProt P24941); test: CDK protein degradation activity (Western blotting), CDK2; assay type: cell-based; conditions: MDA-MB-231 cells, 16 hours, Western blot
T1 construct: endogenous in cells; host or cells: MDA-MB-231
Procedure, shortened: (§1)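 Protein levels were read by Western blot densitometry, tubulin serving as loading reference. Beforehand, MDA-MB-231 cells had been exposed for 16 hours to 100 nM, 1 μM or 10 μM compound, DMSO as control.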

CDK9 = target: T2, CDK9 (Homo sapiens, UniProt P50750); test: CDK protein degradation activity (Western blotting), CDK9; assay type: cell-based; conditions: MDA-MB-231 cells, 16 hours, Western blot
T2 construct: endogenous in cells; host or cells: MDA-MB-231
T2 sequence (P50750 whole entry): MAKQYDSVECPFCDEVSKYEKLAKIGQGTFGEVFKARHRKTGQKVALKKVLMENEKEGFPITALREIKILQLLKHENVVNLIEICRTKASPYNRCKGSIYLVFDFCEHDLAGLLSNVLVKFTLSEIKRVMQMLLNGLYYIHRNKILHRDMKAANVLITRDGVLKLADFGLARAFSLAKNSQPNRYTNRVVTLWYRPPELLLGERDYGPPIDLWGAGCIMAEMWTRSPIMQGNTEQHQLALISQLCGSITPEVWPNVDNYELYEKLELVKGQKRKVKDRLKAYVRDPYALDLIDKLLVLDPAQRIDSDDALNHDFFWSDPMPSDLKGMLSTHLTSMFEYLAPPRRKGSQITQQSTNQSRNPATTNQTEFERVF
Procedure, shortened: as §1

Compound | Enzyme degradation CDK2 (% remaining) @ 0.1 μM (CDK2) | Enzyme degradation CDK2 (% remaining) @ 10 μM (CDK2) | Enzyme degradation CDK9 (% remaining) @ 0.1 μM (CDK9) | Enzyme degradation CDK9 (% remaining) @ 1 μM (CDK9) | Enzyme degradation CDK9 (% remaining) @ 10 μM (CDK9) | Enzyme degradation CDK2 (% remaining) @ 1 μM (CDK2)
O=C1CC[C@H](N2C(=O)c3cccc(NCC(=O)N4CCC(CCCN5CCN(c6ccc(Nc7ncnc8c7ncn8[C@H]7C[C@@H](NC(=O)Cc8ccccc8)C7)cc6)CC5)CC4)c3C2=O)C(=O)N1 [Compound 253, N-((1s,3s)-3-(6-((4-(4-(3-(1-((2-(2,6-dioxopiperidin-3-yl)-1,3-dioxoisoindolin-4-yl)glycyl)piperidin-4-yl)propyl)piperazin-1-yl)phenyl)amino)-9H-purin-9-yl)cyclobutyl)-2-phenylacetamide] | 20/—/20% | 20/—/20% | 0/0/0% | 0/0/0% | 0/0/0% | 
O=C1CC[C@@H](c2ccc(OCC(=O)N3CCC4(CC3)CC(N3CCN(c5ccc(Nc6ncnc7c6ncn7[C@H]6C[C@@H](NC(=O)c7c(Cl)cccc7Cl)C6)cc5)CC3)C4)cc2)C(=O)N1 [Compound 442, 2,6-dichloro-N-((1s,3s)-3-(6-((4-(4-(7-(2-(4-(2,6-dioxopiperidin-3-yl)phenoxy)acetyl)-7-azaspiro[3.5]nonan-2-yl)piperazin-1-yl)phenyl)amino)-9H-purin-9-yl)cyclobutyl)benzamide] | 40/40/40% | 40/40/40% | 0/0/0% | 0/0/0% | 0/0/0% | 40/40/40%
Cc1cccc(C(=O)N[C@H]2C[C@@H](n3cnc4c(Nc5ccc(N6CCN(CCC7CCN(C(=O)COc8ccc([C@@H]9CCC(=O)NC9=O)cc8)CC7)CC6)cc5)ncnc43)C2)n1 [Compound 444, N-((1s,3s)-3-(6-((4-(4-(2-(1-(2-(4-(2,6-dioxopiperidin-3-yl)phenoxy)acetyl)piperidin-4-yl)ethyl)piperazin-1-yl)phenyl)amino)-9H-purin-9-yl)cyclobutyl)-6-methylpicolinamide] | 30/30/30% | 30/30/30% | 0/0/0% | 0/0/0% | 0/0/0% | 30/30/30%
O=C1CC[C@H](N2C(=O)c3ccc(N4CC(C(=O)N5CCC(CN6CCC(CCNc7ncnc8c7ncn8C7CC(NC(=O)c8c(Cl)cccc8Cl)C7)CC6)CC5)C4)cc3C2=O)C(=O)N1 (some centres unmarked) [Compound 399, 2,6-dichloro-N-((1s,3s)-3-(6-((2-(1-((1-(1-(2-(2,6-dioxopiperidin-3-yl)-1,3-dioxoisoindolin-5-yl)azetidin-3-carbonyl)piperidin-4-yl)methyl)piperidin-4-yl)ethyl)amino)-9H-purin-9-yl)cyclobutyl)benzamide] | 30% | 40% | 0/0/0% | 0/0/0% | 0/0/0% | 40%
Cc1cccc(C(=O)NC2CC(n3cnc4c(NCc5ccc(N6CCN(CC7CCN(c8cccc9c8C(=O)N([C@H]8CCC(=O)NC8=O)C9=O)CC7)CC6)cc5)ncnc43)C2)n1 (some centres unmarked) [Compound 150, N-((1s,3s)-3-(6-((4-(4-((1-(2-(2,6-dioxopiperidin-3-yl)-1,3-dioxoisoindolin-4-yl)piperidin-4-yl)methyl)piperazin-1-yl)benzyl)amino)-9H-purin-9-yl)cyclobutyl)-6-methylpicolinamide] | 70% | 80% | 20% | 10% | 0% | 80%
O=C1CC[C@@H](c2ccc(OCC(=O)N3CCC(CN4CCC(c5ccc(Nc6ncnc7c6ncn7C6CC(NC(=O)Cc7ccccc7)C6)cc5)CC4)CC3)cc2)C(=O)N1 (some centres unmarked) [Compound 281, N-((1s,3s)-3-(6-((4-(1-((1-(2-(4-(2,6-dioxopiperidin-3-yl)phenoxy)acetyl)piperidin-4-yl)methyl)piperidin-4-yl)phenyl)amino)-9H-purin-9-yl)cyclobutyl)-2-phenylacetamide] | 30% | 50% | 0/0/0% | 0/0/0% | 0/0/0% | 50%
O=C1CC[C@H](N2C(=O)c3cccc(NCC(=O)N4CCC(CN5CCN(c6ccc(Nc7ncnc8c7ncn8C7CC(NC(=O)c8cccc(Cl)n8)C7)cc6)CC5)CC4)c3C2=O)C(=O)N1 (some centres unmarked) [Compound 419, 6-chloro-N-((1s,3s)-3-(6-((4-(4-((1-((2-(2,6-dioxopiperidin-3-yl)-1,3-dioxoisoindolin-4-yl)glycyl)piperidin-4-yl)methyl)piperazin-1-yl)phenyl)amino)-9H-purin-9-yl)cyclobutyl)picolinamide] | 10/10/10% | 10/10/10% | 0/0/0% | 0/0/0% | 0/0/0% | 10/10/10%
Cc1cccc(C(=O)NC2CC(n3cnc4c(Nc5ccc(N6CCN(CC7CCN(c8cccc9c8C(=O)N([C@H]8CCC(=O)NC8=O)C9=O)CC7)CC6)cc5)ncnc43)C2)n1 (some centres unmarked) [Compound 89, N-((1s,3s)-3-(6-((4-(4-((1-(2-(2,6-dioxopiperidin-3-yl)-1,3-dioxoisoindolin-4-yl)piperidin-4-yl)methyl)piperazin-1-yl)phenyl)amino)-9H-purin-9-yl)cyclobutyl)-6-methylpicolinamide] | 70% | 90% | 10% | 0% | 0% | 50%
O=C1CC[C@H](N2C(=O)c3ccc(NCC(=O)N4CCC(CN5CCC(c6ccc(Nc7ncnc8c7ncn8C7CC(NC(=O)Cc8ccccc8)C7)cc6)CC5)CC4)cc3C2=O)C(=O)N1 (some centres unmarked) [Compound 290, N-((1s,3s)-3-(6-((4-(1-((1-((2-(2,6-dioxopiperidin-3-yl)-1,3-dioxoisoindolin-5-yl)glycyl)piperidin-4-yl)methyl)piperidin-4-yl)phenyl)amino)-9H-purin-9-yl)cyclobutyl)-2-phenylacetamide] | 20% | 30% | 10% | 0% | 0% | 20%
O=C1CC[C@H](N2C(=O)c3ccc(NCC(=O)N4CCN(CCCN5CCN(c6ccc(Nc7ncnc8c7ncn8C7CC(NC(=O)Cc8ccccc8)C7)cc6)CC5)CC4)cc3C2=O)C(=O)N1 (some centres unmarked) [Compound 233, N-((1s,3s)-3-(6-((4-(4-(3-(4-((2-(2,6-dioxopiperidin-3-yl)-1,3-dioxoisoindolin-5-yl)glycyl)piperazin-1-yl)propyl)piperazin-1-yl)phenyl)amino)-9H-purin-9-yl)cyclobutyl)-2-phenylacetamide] | 80% | 70% | 40% | 0% | 0% | 80%
Cc1cccc(C(=O)NC2CC(n3cnc4c(Nc5ccc(N6CCN(C(=O)COc7ccc8c(c7)C(=O)N([C@H]7CCC(=O)NC7=O)C8=O)CC6)cc5)ncnc43)C2)n1 (some centres unmarked) [Compound 84, N-((1s,3s)-3-(6-((4-(4-(2-((2-(2,6-dioxopiperidin-3-yl)-1,3-dioxoisoindolin-5-yl)oxy)acetyl)piperazin-1-yl)phenyl)amino)-9H-purin-9-yl)cyclobutyl)-6-methylpicolinamide] | 50% | 20% | 70% | 30% | 10% | 30%
O=C1CC[C@@H](c2ccc(OCC(=O)N3CCC4(CC3)CC(N3CCC(c5ccc(Nc6ncnc7c6ncn7C6CC(NC(=O)Cc7ccccc7)C6)cc5)CC3)C4)cc2)C(=O)N1 (some centres unmarked) [Compound 284, N-((1s,3s)-3-(6-((4-(1-(7-(2-(4-(2,6-dioxopiperidin-3-yl)phenoxy)acetyl)-7-azaspiro[3.5]nonan-2-yl)piperidin-4-yl)phenyl)amino)-9H-purin-9-yl)cyclobutyl)-2-phenylacetamide] | 40% | 60% | 0/0/0% | 0/0/0% | 0/0/0% | 50%
O=C1CC[C@H](N2C(=O)c3ccc(N4CC(C(=O)N5CCC(N6CCN(c7ccc(Nc8ncnc9c8ncn9[C@H]8C[C@@H](NC(=O)Cc9ccccc9)C8)cc7)CC6)CC5)C4)cc3C2=O)C(=O)N1 [Compound 342, N-((1s,3s)-3-(6-((4-(4-(1-(1-(2-(2,6-dioxopiperidin-3-yl)-1,3-dioxoisoindolin-5-yl)azetidin-3-carbonyl)piperidin-4-yl)piperazin-1-yl)phenyl)amino)-9H-purin-9-yl)cyclobutyl)-2-phenylacetamide] | 0/0/0% | 0/0/0% | 0/0/0% | 0/0/0% | 0/0/0% | 0/0/0%
